Laboratory results taken from patent EP4800013A1, “PARG INHIBITOR” (Shanghai Qilu Pharmaceutical Research and Development …, priority 2023, dated 2025).
pIC50: −log10 of the molar value.

Target: T1, PARG (Homo sapiens, UniProt Q86W56)
T1 construct: made in house
Assay: Enzymatic inhibitory activity against PARG, HTRF assay
Assay type: biochemical
Conditions: HTRF; PARylated PARP1 protein as substrate; 60 minutes at room temperature; read-out: IC50 against PARG enzyme
Experimental: In this experiment, the enzymatic inhibitory activity of the compounds of the present disclosure against PARG was determined using an HTRF (homogeneous time-resolved fluorescence) assay.
HTRF assay reagents were purchased from PerkinElmer (Cat. Nos. 61HISTLB and 610SAXLB). The purified protein was prepared in-house.
PARG enzyme reaction buffer: 50 mM Tris (pH 7.4), 0.1 mg/mL BSA, 3 mM EDTA, 0.4 mM EGTA, 1 mM DTT, 50 mM KCl, and 0.01% Tween 20.
• 1) Using an ultra-micro pipette, the compounds of the present disclosure were serially diluted (starting at 10 µM with 3- to 5-fold serial dilutions) and added to a 384-well reaction plate, with each concentration tested in duplicate wells. Control group 1 was added with 10 µM control compound (100% inhibition group). Control group 2 was added with DMSO (0% inhibition group). After compound addition, the 384-well plate was centrifuged at 1000 rpm for 1 minute. • 2) 2.5 µL of PARG protein was added to each well and incubated with the compounds of the present disclosure at room temperature for 15 minutes, followed by centrifugation at 1000 rpm for 1 minute. • 3) 2.5 µL of PARylated PARP1 protein was added to each well and incubated at room temperature for 60 minutes, followed by centrifugation at 1000 rpm for 1 minute. • 4) 5 µL of His-Tb & SA-XL665 HTRF assay reagents were added to each well and incubated at room temperature for 60 minutes, followed by centrifugation at 1000 rpm for 1 minute. • 5) […] were measured using a PHERAstar FSX microplate reader from BMG. • 6) Data analysis was performed using GraphPad Prism 8. The IC50 values of the compounds of the present disclosure were calculated as follows. […] The average value of duplicate wells in control group 2 (0% inhibition group) was set as the relative inhibition rate of 0%. The HTRF signal values were converted into relative inhibition rates. The IC50 values of the compounds were calculated by fitting the data to a four-parameter logistic model. Table 15: Enzymatic inhibitory activity of the compounds of the present disclosure against PARG

T1 sequence (Q86W56 whole entry): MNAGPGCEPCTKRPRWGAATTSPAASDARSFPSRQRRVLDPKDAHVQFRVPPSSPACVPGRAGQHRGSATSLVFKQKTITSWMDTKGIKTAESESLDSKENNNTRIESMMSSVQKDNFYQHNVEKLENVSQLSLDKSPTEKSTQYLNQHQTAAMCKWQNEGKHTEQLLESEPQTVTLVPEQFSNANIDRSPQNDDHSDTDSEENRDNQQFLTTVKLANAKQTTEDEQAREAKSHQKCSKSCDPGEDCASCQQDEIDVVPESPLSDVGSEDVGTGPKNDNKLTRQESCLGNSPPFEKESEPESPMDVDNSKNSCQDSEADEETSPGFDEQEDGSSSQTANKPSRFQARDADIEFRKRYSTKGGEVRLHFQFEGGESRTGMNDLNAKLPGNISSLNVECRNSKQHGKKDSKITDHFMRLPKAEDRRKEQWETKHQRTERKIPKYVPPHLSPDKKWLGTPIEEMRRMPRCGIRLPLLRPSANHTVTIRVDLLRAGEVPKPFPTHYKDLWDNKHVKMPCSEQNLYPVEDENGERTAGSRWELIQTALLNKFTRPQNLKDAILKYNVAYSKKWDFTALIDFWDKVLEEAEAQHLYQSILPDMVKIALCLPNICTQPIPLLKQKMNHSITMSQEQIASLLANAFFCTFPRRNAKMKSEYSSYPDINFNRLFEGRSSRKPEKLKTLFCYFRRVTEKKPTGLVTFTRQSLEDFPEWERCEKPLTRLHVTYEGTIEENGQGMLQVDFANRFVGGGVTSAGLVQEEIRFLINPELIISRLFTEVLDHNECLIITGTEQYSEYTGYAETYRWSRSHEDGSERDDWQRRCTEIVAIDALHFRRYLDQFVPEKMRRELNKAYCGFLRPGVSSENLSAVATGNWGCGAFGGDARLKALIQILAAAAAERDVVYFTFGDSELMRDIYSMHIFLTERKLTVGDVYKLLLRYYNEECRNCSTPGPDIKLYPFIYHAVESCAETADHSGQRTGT

Compound	pIC50
C[C@H]1CN(c2cc(S(=O)(=O)NC3(C)CC3)cc3c2nnn3-c2nnc(C(F)F)s2)C[C@H](C)N1 [Compound 008B]	8.02
CC(C)S(=O)(=O)N1CCN(c2cc(S(=O)(=O)NC3(C#N)CC3)cc3c2nc(OC2CC2)n3-c2nnc(C(F)F)s2)CC1 [Compound 057P]	7.53
C=CCn1c(=O)n(-c2nnc(C(F)F)s2)c2cc(S(=O)(=O)NC3(C#N)CC3)cc(N3CCN(c4ncc[nH]4)CC3)c21 [Compound 067JD]	7.50
C=CCn1c(=O)n(-c2nnc(C(F)F)s2)c2cc(S(=O)(=O)NC3(C#N)CC3)cc(N3CCN(C(=O)NC)CC3)c21 [Compound 067M]	7.54
C=CCn1c(=O)n(-c2nnc(C(F)F)s2)c2cc(S(=O)(=O)NC3(C#N)CC3)cc(N3CCN(C(=O)C(C)C)[C@H](C)C3)c21 [Compound 069D]	7.63
CC(C)C(=O)N1CCN(c2cc(S(=O)(=O)NC3(C#N)CC3)cc3c2n(CC#N)c(=O)n3-c2nnc(C(F)F)s2)CC1 [Compound 074J]	7.97
C=CCn1c(=O)n(-c2nnc(C(F)F)s2)c2cc(S(=O)(=O)NC3(C#N)CC3)cc(N3CCN(S(=O)(=O)c4ccn(C)n4)CC3)c21 [Compound 075B]	7.45
C=CCn1c(=O)n(-c2nnc(C(F)F)s2)c2cc(S(=O)(=O)NC3(C#N)CC3)cc(N3CCN(C(=O)C(C)(C)NC(=O)OC)CC3)c21 [Compound 076A]	7.89
C=CCn1c(=O)n(-c2nnc(C(F)F)s2)c2cc(S(=O)(=O)NC3(C#N)CC3)cc(N3CCN(C(=O)C4(C)CCCN4)CC3)c21 (centres unmarked) [Compound 076B]	8.01
C=CCn1c(=O)n(-c2nnc(C(F)F)s2)c2cc(S(=O)(=O)NC3(C#N)CC3)cc(N3CCN(C(=O)C4CCCN4)CC3)c21 (centres unmarked) [Compound 076C]	8.07
C=CCn1c(=O)n(-c2nnc(C(F)F)s2)c2cc(S(=O)(=O)NC3(C#N)CC3)cc(N3CCN(C(=O)C4CCCN4C)CC3)c21 (centres unmarked) [Compound 076D]	7.83
C=CCn1c(=O)n(-c2nnc(C(F)F)s2)c2cc(S(=O)(=O)NC3(C#N)CC3)cc(N3CCN(C(=O)[C@@H]4CCC5(CC5)N4)CC3)c21 [Compound 076F1]	7.51
C=CCn1c(=O)n(-c2nnc(C(F)F)s2)c2cc(S(=O)(=O)NC3(C#N)CC3)cc(N3CCN(C(=O)C4CCC(=O)N4)CC3)c21 (centres unmarked) [Compound 076G]	8.05
C[C@H]1CN(c2cc(S(=O)(=O)NC3(C#N)CC3)cc3c2nc(C2CCCO2)n3-c2nnc(C(F)F)s2)C[C@H](C)N1 (some centres unmarked) [Compound 077J]	7.98
C[C@H]1CN(c2cc(S(=O)(=O)NC3(C)COC3)cc3c2nc(C2CCCO2)n3-c2nnc(C(F)F)s2)C[C@H](C)N1 (some centres unmarked) [Compound 077K]	7.89
C[C@H]1CN(c2cc(S(=O)(=O)NC3(C)CC3)cc3c2nc(C2CNCCO2)n3-c2nnc(C(F)F)s2)C[C@H](C)N1 (some centres unmarked) [Compound 077Y]	7.99
C[C@H]1CN(c2cc(S(=O)(=O)NC3(C)CC3)cc3c2nc([C@@H]2CC4(CC4)CO2)n3-c2nnc(C(F)F)s2)C[C@H](C)N1 [Compound 079M2]	8.72
C[C@H]1CN(c2cc(S(=O)(=O)NC3(C)CC3)cc3c2nc(C2CCOC2)n3-c2nnc(C(F)F)s2)C[C@H](C)N1 (some centres unmarked) [Compound 079N]	8.21
C[C@H]1CN(c2cc(S(=O)(=O)NC3(C)CC3)cc3c2cc(N=S(C)(C)=O)n3-c2nnc(C(F)F)s2)C[C@H](C)N1 [Compound 082E]	8.26
CN(C)C(=O)N1CCN(c2cc(S(=O)(=O)NC3(C#N)CC3)cc3c2n(CC(F)(F)F)c(=O)n3-c2nnc(C(F)F)s2)CC1 [Compound A044]	8.15
C=CCn1c(=O)n(-c2nnc(C(F)F)s2)c2cc(S(=O)(=O)NC3(C#N)CC3)cc(N3CCN(C(=O)NC4CC4)CC3)c21 [Compound A054]	7.41
CC(C)C(=O)N1CCN(c2cc(S(=O)(=O)NC3(C#N)CC3)cc3c2n(C2CC2)c(=O)n3-c2nnc(C(F)F)s2)CC1 [Compound A055]	7.92
CC(C)S(=O)(=O)N1CCN(c2cc(S(=O)(=O)NC3(C#N)CC3)cc3c2n(C2CC2)c(=O)n3-c2nnc(C(F)F)s2)CC1 [Compound A056]	8.28
C[C@H]1CN(c2cc(S(=O)(=O)NC3(C)CC3)cc3c2ncn3-c2nnc(C(F)F)s2)C[C@H](C)N1 [Compound B004]	7.81
C[C@H]1CN(c2cc(S(=O)(=O)NC3(C)CC3)cc3c2ncn3-c2nnc(C(F)F)s2)C[C@H](C)N1C(=O)N(C)C [Compound B005]	7.94
CC(C)(O)C(=O)N1CCN(c2cc(S(=O)(=O)NC3(C#N)CC3)cc3c2ncn3-c2nnc(C(F)F)s2)CC1 [Compound B015]	7.80
CN(C)C(=O)N1CC=C(c2cc(S(=O)(=O)NC3(C#N)CC3)cc3c2ncn3-c2nnc(C(F)F)s2)CC1 [Compound B022]	7.73
CC(C)C(=O)N1CC=C(c2cc(S(=O)(=O)NC3(C#N)CC3)cc3c2ncn3-c2nnc(C(F)F)s2)CC1 [Compound B023]	7.78
C[C@H]1CN(c2cc(S(=O)(=O)NC3(C)CC3)cc3c2n2ccnc2n3-c2nnc(C(F)F)s2)C[C@H](C)N1 [Compound B024]	7.78
C[C@H]1CN(c2cc(S(=O)(=O)NC3(C)CC3)cc3c2c2nccnc2n3-c2nnc(C(F)F)s2)C[C@H](C)N1 [Compound H001]	8.96

System: KURAMOCHI cells
Assay: Inhibition of proliferation of KURAMOCHI cells (CellTiter-Glo, intracellular ATP)
Assay type: cell-based
Conditions: 168 h, incubated for 7 days, read-out: IC50 against KURAMOCHI cells
Experimental: In this experiment, the inhibitory effect of the compounds of the present disclosure on the proliferation of the cancer cell line KURAMOCHI was evaluated by measuring intracellular ATP levels using a bioluminescent assay, and the half maximal inhibitory concentration (IC50) was determined.
RPMI 1640 medium (Cat. No. 11875-093), fetal bovine serum (10099-141), and 100× Pen/Strep (15070-063) were purchased from GIBCO. CellTiter-Glo Luminescent Cell Viability Assay reagent (Cat. No. G7573) was purchased from Promega.
• 1) Day 1: KURAMOCHI cells were counted using a cell counter and seeded into a 96-well culture plate at a density of 4000 cells per well in 100 µL medium. The plate was incubated overnight in an incubator (37°C, 5% CO2). • 2) Day 2: Using a D300e digital dispenser (TECAN), 500 nL of serially diluted test compounds of the present disclosure (starting at 10 µM, a total of 9 concentrations, 1:4 dilution) were added to the cells in the culture plate. The final concentration of DMSO was 0.5%. The cell culture plate was incubated for 7 days in a cell culture incubator (37°C, 5% CO2). Control group 1 received only medium and DMSO (100% inhibition group). Control group 2 received only DMSO (0% inhibition group). The final concentration of DMSO in both groups was 0.5%. • 3) Day 9: 100 µL of CellTiter-Glo reagent was added to each well. The plate was shaken at 500 rpm for 2 minutes, centrifuged at 1000 rpm for 1 minute, and then incubated at room temperature in the dark for 10 minutes to stabilize the luminescence signal. • 4) Luminescence signals were measured using an EnVision microplate reader (PerkinElmer). • 5) Data analysis was performed using GraphPad Prism 8. The IC50 values of the compounds of the present disclosure were calculated as follows. The CTG signal values were analyzed. The average inhibition rate of control group 1 (100% inhibition group) was set as the relative inhibition rate of 100%. The average inhibition rate of control group 2 (0% inhibition group) was set as the relative inhibition rate of 0%. The CTG signal values were converted into relative inhibition rates. The inhibition percentage (inhibition%) for each concentration of the compounds of the present disclosure was calculated according to the following formula: Inhibition% = (b−x)/(b−a)*100%; [formula] • a = CTG value (highest concentration), b = CTG value (blank well), x = CTG value (test well). • IC50 was calculated using GraphPad Prism 8. • (1) The concentration and inhibition rate corresponding to each well were recorded. Statistical calculation was performed using Log10 (compound concentration). • (2) The data were input into GraphPad Prism 8 and Analysis was selected. • (3) Nonlinear regression (curve fit) was selected. • (4) Log (inhibitor) vs. response - Variable slope was selected. • (5) The calculation formula was selected, and the calculation was performed according to the following formula: Y = Bottom + (Top - Bottom) / (1 + 10 ^ ((LogIC50 - X) * HillSlope)); X: log of dose or concentration; Y: response; Top and Bottom: maximum and minimum response. • (6) The IC50 values were calculated by fitting the data. Table 16: Inhibitory effect of the compounds of the present disclosure on the proliferation of KURAMOCHI cells

Compound	pIC50
C[C@H]1CN(c2cc(S(=O)(=O)NC3(C)CC3)cc3c2nnn3-c2nnc(C(F)F)s2)C[C@H](C)N1 [Compound 008B]	8.05
C[C@H]1CN(c2cc(S(=O)(=O)NC3(C)CC3)cc3c(-c4nnc(C(F)F)s4)noc23)C[C@H](C)N1 [Compound 021B]	7.96
C=CCn1c(=O)n(-c2nnc(C(F)F)s2)c2cc(S(=O)(=O)NC3(C#N)CC3)cc(N3CC4CC3CN4S(=O)(=O)C(C)C)c21 (centres unmarked) [Compound 069E]	7.26
C=CCn1c(=O)n(-c2nnc(C(F)F)s2)c2cc(S(=O)(=O)NC3(C#N)CC3)cc(N3CCN(C(=O)C4CC(F)(F)C4)CC3)c21 [Compound 072D]	7.28
C[C@H]1CN(c2cc(S(=O)(=O)NC3(C)CC3)cc3c2nc(-c2nccs2)n3-c2nnc(C(F)F)s2)C[C@H](C)N1 [Compound 077S]	7.24
C=CC1CN(c2cc(S(=O)(=O)NC3(C)CC3)cc3c2cnn3-c2nnc(C(F)F)s2)C[C@H](C)N1 (some centres unmarked) [Compound 078A]	7.52
C#CC1CN(c2cc(S(=O)(=O)NC3(C)CC3)cc3c2cnn3-c2nnc(C(F)F)s2)C[C@H](C)N1 (some centres unmarked) [Compound 078B]	7.47
C=C[C@H]1CN(c2cc(S(=O)(=O)NC3(C)CC3)cc3c2cnn3-c2nnc(C(F)F)s2)C[C@H](C=C)N1 [Compound 078C]	7.82
